Results reported in PMC6934184, “Selective DNA-PKcs inhibition extends the therapeutic index of localized radiotherapy and chemotherapy” (The Journal of Clinical Investigation, 2019).

Target: T1, DDR2 (Homo sapiens, UniProt Q16832)
T1 construct: purchased Thermo Fisher Scientific (Life Technologies) SelectScreen
Test: SelectScreen LanthaScreen
Assay type: binding
Settings: read-out: % displacement
Summary of the method: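 NU5455 was profiled across the SelectScreen Broad panel of kinase activity and binding assays. Z'LYTE reactions such as CSF1R ran at apparent Km ATP, while the Adapta CAMK1 assay used ATP listed as 10. Values are given as percent.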

T1 sequence (Q16832 22-855): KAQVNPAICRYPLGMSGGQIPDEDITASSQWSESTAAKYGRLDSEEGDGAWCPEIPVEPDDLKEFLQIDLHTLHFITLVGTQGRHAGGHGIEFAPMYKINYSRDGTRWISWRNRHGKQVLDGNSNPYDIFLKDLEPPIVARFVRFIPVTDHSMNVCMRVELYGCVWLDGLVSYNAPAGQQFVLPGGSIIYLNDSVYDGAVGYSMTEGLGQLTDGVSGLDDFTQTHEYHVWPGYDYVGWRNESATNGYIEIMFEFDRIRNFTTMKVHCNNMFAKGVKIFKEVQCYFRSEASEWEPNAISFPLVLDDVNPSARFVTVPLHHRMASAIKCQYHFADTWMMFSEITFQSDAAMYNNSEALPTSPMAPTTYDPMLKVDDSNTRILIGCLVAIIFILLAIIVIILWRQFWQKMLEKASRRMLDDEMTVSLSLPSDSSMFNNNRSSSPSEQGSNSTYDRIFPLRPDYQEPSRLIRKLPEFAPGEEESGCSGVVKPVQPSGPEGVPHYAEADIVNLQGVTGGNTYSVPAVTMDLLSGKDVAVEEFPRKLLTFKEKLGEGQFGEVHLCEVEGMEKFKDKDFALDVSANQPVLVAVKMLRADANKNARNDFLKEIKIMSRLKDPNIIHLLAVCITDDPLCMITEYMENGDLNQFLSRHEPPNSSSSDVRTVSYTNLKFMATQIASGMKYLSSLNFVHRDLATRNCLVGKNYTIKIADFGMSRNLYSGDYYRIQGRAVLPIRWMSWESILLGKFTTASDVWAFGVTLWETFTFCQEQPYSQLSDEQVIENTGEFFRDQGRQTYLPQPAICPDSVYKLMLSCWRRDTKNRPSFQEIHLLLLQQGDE

CN(C(=O)CN1CCOCC1)c1ccc2sc3c(-c4cccc5c(=O)cc(N6CC7CCC(C6)O7)oc45)cccc3c2c1 [NU5455]
inhibition at 1 µM: 0.7%
